Source: patent US11981731B2, “Targeting cytotoxic cells with chimeric receptors for adoptive immunotherapy” (Novartis AG, priority 2014, dated 2024)
“Also recorded” adds a separate entry of the source. Read-outs that look alike come from different tables or passages of the source.

Key:
[1] = tested on: CAR-positive CD3-positive T cells co-cultured with Nalm-6 cells; experiment: CART proliferation in co-culture with Nalm-6 cells with RAD001; type: cell-based; details: low doses of RAD001, 4 days of co-culture with Nalm-6
Procedure: CARTs were co-cultured with Nalm-6 cells in the presence of different concentrations of RAD001. The number of CAR-positive CD3-positive T cells (black) and total T cells (gray) was assessed after 4 days of co-culture.

[2] = tested on: CD4+ and CD8+ CAR T cells; experiment: In vivo proliferation of humanized CD19 CART cells with and without RAD001; details: 0.003 mg/kg daily with huCTL019
Procedure: FIG. 49A and FIG. 49B show in vivo proliferation of humanized CD19 CART cells with and without RAD001 dosing. […] Circles denote PBS; squares denote huCTL019; triangles denote huCTL019 with 3 mg/kg RAD001; inverted triangles denote huCTL019 with 0.3 mg/kg RAD001; diamonds denote huCTL019 with 0.03 mg/kg RAD001; and circles denote huCTL019 with 0.003 mg/kg RAD001.

[3] = tested on: huCART19 cells; experiment: CART proliferation in 4 day co-culture with Nalm-6 in presence of RAD001; type: cell-based, human
Procedure: To evaluate the functionality of CARTs, the T cells are thawed and counted, and viability is assessed by Cellometer. The number of CAR-positive cells in each culture is normalized using non-transduced T cells (UTD). The impact of RAD001 on CARTs was tested in titrations with RAD001, starting at 50 nM. The target cell line used in all co-culture experiments is Nalm-6, a human pre-B cell acute lymphoblastic leukemia (ALL) cell line expressing CD19 and transduced to express luciferase.
For measuring the proliferation of CARTs, T cells are cultured with target cells at a ratio of 1:1. The assay is run for 4 days, when cells are stained for CD3, CD4, CD8 and CAR expression. The number of T cells is assessed by flow cytometry using counting beads as reference.

[4] = RAD001 PK analysis in NSG mice with NALM6-luc tumors; type: in vivo; details: for concentration at 24 h: NSG, mouse
Procedure: (§1) A concentrated micro-emulsion of 50 mg equal to 1 mg RAD001 was formulated and then resuspended in D5W (dextrose 5% in water) at the time of dosing. Mice were orally dosed daily (via oral gavage) with 200 μl of the desired doses of RAD001.
Mice were dosed daily with RAD001 starting 7 days post tumor implantation. Dosing groups were as follows: 0.3 mg/kg, 1 mg/kg, 3 mg/kg, and 10 mg/kg. Mice were bled on days 0 and 14 following the first and last dose of RAD001, at the following time points for PK analysis: 15 minutes, 30 minutes, 1 hour, 2 hours, 4 hours, 8 hours, 12 hours, and 24 hours.

[5] = tested on: NALM6-luc tumors; experiment: NALM6-luc tumor growth under daily oral RAD001; type: in vivo, NSG mice; details: daily oral dosing of RAD001 alone
Procedure: NALM6-luc cells were grown and expanded in vitro in RPMI supplemented with 10% heat inactivated fetal bovine serum. The cells were then transferred to a 15 ml conical tube and washed twice with cold sterile PBS. NALM6-luc cells were then counted and resuspended at a concentration of 10×10^6 cells per milliliter of PBS. The cells were placed on ice and immediately (within one hour) implanted in the mice. NALM6-luc cells were injected intravenously via the tail vein in a 100 μl volume, for a total of 1×10^6 cells per mouse.
as §1

[6] = tested on: huCAR19 CAR T cells; experiment: CAR T cell expansion in vivo with RAD001 (FACS); design: species or system NSG mice; details: lowest doses of RAD001, daily oral
Procedure: Mice were administered 5×10^6 CAR T cells 7 days after tumor implantation. Cells were partially thawed in a 37 degree Celsius water bath and then completely thawed by the addition of 1 ml of cold sterile PBS to the tube containing the cells. The thawed cells were transferred to a 15 ml falcon tube and adjusted to a final volume of 10 mls with PBS. The cells were washed twice at 1000 rpm for 10 minutes each time and then counted on a hemocytometer. T cells were then resuspended at a concentration of 50×10^6 CAR T cells per ml of cold PBS and kept on ice until the mice were dosed. The mice were injected intravenously via the tail vein with 100 μl of the CAR T cells for a dose of 5×10^6 CAR T cells per mouse. Eight mice per group were treated either with 100 μl of PBS alone (PBS), or humanized CD19 CAR T cells.
as §1
Based on these doses, huCAR19 CAR T cells were dosed with and without RAD001 to determine the proliferative ability of these cells. The highest dose used was 3 mg/kg based on the levels of RAD001 in the blood 24 hours after dosing. […] Mice were monitored via FACS for T cell expansion.

concentration at 24 h ([4]; blood, oral, 0.3 mg/kg, 24 hours after the final dose, read-out: concentration of RAD001): > 10 nM
concentration at 24 h ([4]; whole blood, 24 hours after dosing, 0.3 mg/kg oral, day 0 and day 14, read-out: RAD001 concentrations in the blood): > 10 nM
stability in the blood of tumor bearing mice ([4]; daily oral dosing): fairly stable
Structure (SMILES): CO[C@H]1C[C@@H]2CC[C@@H](C)[C@@](O)(O2)C(=O)C(=O)N2CCCC[C@H]2C(=O)O[C@H]([C@H](C)C[C@@H]2CC[C@@H](OCCO)[C@H](OC)C2)CC(=O)[C@H](C)/C=C(\C)[C@@H](O)[C@@H](OC)C(=O)[C@H](C)C[C@H](C)/C=C/C=C/C=C/1C [RAD001, everolimus]
proliferation of CAR-expressing, transduced T cells [1]: enhanced
in vivo CAR T cell proliferation [2]: enhancement in CAR T cell proliferation
proliferation of huCART19 cells ([3]; 0.0032 and 0.016 nM RAD001): higher than observed without the addition of RAD001
expansion of huCART19 cells ([3]; less than 0.016 nM of RAD001): expanded
impact on the growth of NALM6-luc tumors [5]: did not have an impact
proliferation of the CAR T cells in vivo [6]: enhanced proliferation; also recorded: more evident and prolonged with the CD4^+ CAR T cells
